Experiment [1] has as its target T1, C-C chemokine receptor type 3 (Homo sapiens, UniProt P51677).
T1 sequence (P51677 whole entry): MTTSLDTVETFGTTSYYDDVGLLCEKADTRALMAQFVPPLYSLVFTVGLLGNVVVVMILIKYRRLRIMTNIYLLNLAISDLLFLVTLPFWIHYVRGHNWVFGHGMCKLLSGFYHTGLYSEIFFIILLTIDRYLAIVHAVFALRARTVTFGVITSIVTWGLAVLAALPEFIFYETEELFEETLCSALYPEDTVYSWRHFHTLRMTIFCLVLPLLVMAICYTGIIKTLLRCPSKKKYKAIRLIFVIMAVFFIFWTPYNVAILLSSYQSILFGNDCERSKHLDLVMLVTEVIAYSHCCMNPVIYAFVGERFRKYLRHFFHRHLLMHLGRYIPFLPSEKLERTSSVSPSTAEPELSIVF
The experiment can be described thus: Displacement of [125I] eotaxin from human CCR3 receptor in CHO cells. In kind it is cell-based. On the technique in general: In a radioligand displacement assay an active substance lowers the binding of a labelled ligand.

The target of experiment [2] is T2, C-C chemokine receptor type 3 (Homo sapiens) (UniProt P51677).
T2 sequence (whole entry): T1 sequence (P51677 whole entry)
The experiment can be described thus: Antagonist activity at human CCR3 receptor assessed as inhibition of chemotaxis in eosinophil at 30 nM. Also noted: scale not given: the % may be the effect or the level left. The class given is functional.

Experiment [3] has as its target T2, C-C chemokine receptor type 3 (Homo sapiens). The experiment can be described thus: Antagonist activity at human CCR3 receptor assessed as inhibition of chemotaxis in eosinophil at 3 nM. The class given is functional. Also noted: scale not given: the % may be the effect or the level left.
Experiment [4] has the same target. The experiment can be described thus: Antagonist activity at human CCR3 receptor assessed as inhibition of chemotaxis in eosinophil at 0.3 nM. The class given is functional. Also noted: scale not given: the % may be the effect or the level left.
Experiment [5] shares this target. The experiment can be described thus: Antagonist activity at human CCR3 receptor assessed as inhibition of chemotaxis in eosinophil at 0.03 nM. The class given is functional. The arrangement: scale not given: the % may be the effect or the level left.
Experiment [6] has as its target C-C chemokine receptor type 3 (Homo sapiens, UniProt P51677). The experiment can be described thus: Displacement of [125I] eotaxin from human CCR3/CCR2 chimeric receptor in CHO cells. In kind it is cell-based.

For orientation: IC50 means the concentration that inhibits the measured activity by half.

Take `CCN(C[C@H](O)[C@@H](C)NC(=O)Nc1cccc(-c2nnnn2C)c1)[C@@H](C)CCc1ccc(F)cc1`: the IC50 in experiment [1] is 2.5 nM.
In experiment [1], `C[C@@H](NC(=O)Nc1cccc(-c2nnnn2C)c1)[C@@H](O)CN(C)[C@@H](C)[C@@H](O)c1ccccc1` came in with an IC50 of 0.4 nM. Also, the Activity in experiment [2] turned out to be 67%.
`C[C@@H](NC(=O)Nc1cccc(-c2nnnn2C)c1)[C@@H](O)CN(CCCc1ccc(F)cc1)CC12CC3CC(CC(C3)C1)C2`: the IC50 in experiment [1] came out at 421 nM.
Still for that read-out and setting: then `CCN(C[C@H](O)[C@@H](C)NC(=O)Nc1cccc(-c2nnnn2C)c1)[C@@H](C)[C@H](O)Cc1ccc(F)cc1`, with 88 nM.
Compound `C[C@@H](NC(=O)Nc1cccc(-c2nnnn2C)c1)[C@@H](O)CN(CCCc1ccc(F)cc1)CC1CC1` showed an IC50 in experiment [1] of 0.4 nM. Also, the Activity in experiment [3] came out at 44%.
As for `CCc1cc(NC(=O)N[C@H](C)[C@@H](O)CN(CCCc2ccc(F)cc2)CC(F)(F)F)cc(-c2nnnn2C)c1`, in experiment [1], the IC50 stood at 9 nM.
On the same count and under the same terms, then `C[C@@H](NC(=O)Nc1cccc(-c2nnnn2C)c1)[C@@H](O)CN(C)[C@@H](C)[C@H](O)c1ccccc1`, with 5.7 nM.
Same read-out and setting: then `CCc1cc(NC(=O)N[C@H](C)[C@@H](O)CN(CC)[C@@H](C)[C@H](O)Cc2ccc(F)cc2)cc(-c2nnnn2C)c1`, with 3.4 nM; and `CCc1cc(NC(=O)N[C@H](C)[C@@H](O)CN(CCCc2ccc(F)cc2)CC2CC2)cc(-c2nnnn2C)c1`, with 0.6 nM; and `CCc1cc(NC(=O)N[C@H](C)[C@@H](O)CN2CCC[C@@H](Cc3ccc(F)cc3)C2)cc(-c2nnnn2C)c1`, with 1.8 nM.
In the case of `CCc1cc(NC(=O)N[C@H](C)[C@@H](O)CNCCCc2ccc(F)cc2)cc(-c2nnnn2C)c1`, the IC50 in experiment [1] was found to be 0.3 nM. Moreover, the values for the Activity in experiment [2] and in experiment [3] were 55% and 42%, respectively.
Turning to `CCc1cc(NC(=O)N[C@H](C)[C@@H](O)CN(CC)CCCc2ccc(F)cc2)cc(-c2nnnn2C)c1` (stereo in doubt; 5b), the IC50 in experiment [1] turned out to be 0.4 nM.
Still for that read-out and setting: then `CCc1cc(NC(=O)N[C@H](C)[C@@H](O)CN(C)[C@@H](C)[C@@H](O)c2ccccc2)cc(-c2nnnn2C)c1`, with 0.5 nM.
The compound `C[C@H]([C@H](O)c1ccccc1)N(C)C[C@H](O)[C@@H](C)NC(=O)Nc1cccc(-c2nnnn2C)c1` registered an IC50 in experiment [1] of 577 nM.
On the same count and under the same terms, then `CCN(C[C@H](O)[C@@H](C)NC(=O)Nc1cccc(-c2nnnn2C)c1)[C@@H](C)[C@@H](O)Cc1ccc(F)cc1`, with 19 nM; and `CCc1cc(NC(=O)N[C@H](C)[C@@H](O)CN(CCCc2ccc(F)cc2)CC23CC4CC(CC(C4)C2)C3)cc(-c2nnnn2C)c1`, with 211 nM.
`C[C@H]([C@@H](O)c1ccccc1)N(C)C[C@H](O)[C@@H](C)NC(=O)Nc1cccc(-c2nnnn2C)c1` showed an IC50 in experiment [1] of 238 nM.
For `CCc1cc(NC(=O)N[C@H](C)[C@@H](O)CN(CCCc2ccc(F)cc2)C2CCCCC2)cc(-c2nnnn2C)c1`, the IC50 in experiment [1] was 3.2 nM. The Activity in experiment [2] was 58%; in experiment [3], 0%.
Compound `C[C@@H](NC(=O)Nc1cccc(-c2nnnn2C)c1)[C@@H](O)CN(CCCc1ccc(F)cc1)CC(F)(F)F` returned an IC50 in experiment [1] of 59 nM.
Same read-out and setting: next, `C[C@@H](NC(=O)Nc1cccc(-c2nnnn2C)c1)[C@@H](O)CN(CCCc1ccc(F)cc1)C1CC1`: 0.4 nM.
`CCCN(CCCc1ccc(F)cc1)C[C@H](O)[C@@H](C)NC(=O)Nc1cccc(-c2nnnn2C)c1`: in experiment [1], the IC50 worked out at 0.2 nM. For the same compound, the Activity in experiment [3] worked out at 43%.
`Cn1nnnc1-c1cccc(NC(=O)N[C@@H]2CCCC[C@H]2CNCCCc2ccc(F)cc2)c1` yielded an IC50 in experiment [1] of 3.7 nM.
The compound `CCN(CCCc1ccc(F)cc1)C[C@H](O)[C@@H](C)NC(=O)Nc1cccc(-c2nnnn2C)c1` registered an IC50 in experiment [1] of 0.2 nM. In experiment [4], the Activity worked out at 34%.
For the compound `CCCN(CCCc1ccc(F)cc1)C[C@H](O)[C@@H](C)NC(=O)Nc1cc(CC)cc(-c2nnnn2C)c1`, the IC50 in experiment [1] amounted to 0.5 nM. Besides, the Activity came to 62% in experiment [4] and 42% in experiment [5].
For the compound `CCc1cc(NC(=O)N[C@H](C)[C@@H](O)CN(CC)[C@@H](C)CCc2ccc(F)cc2)cc(-c2nnnn2C)c1`, the IC50 in experiment [1] amounted to 0.2 nM.
Still for that read-out and setting: next, `CCc1cc(NC(=O)N[C@H](C)[C@@H](O)CN(CCCc2ccc(F)cc2)C2CC2)cc(-c2nnnn2C)c1`: 0.6 nM; `Cn1nnnc1-c1cccc(NC(=O)N[C@@H]2CCCC[C@H]2CN(CCCc2ccc(F)cc2)CC(F)(F)F)c1`: 60 nM.
The same measure, in the same setting: then `C[C@@H](NC(=O)Nc1cccc(-c2nnnn2C)c1)[C@@H](O)CN(CCCc1ccc(F)cc1)C1CCCCC1`, with 2.5 nM.
Same read-out and setting: then `CCc1cc(NC(=O)N[C@H](C)[C@@H](O)CN(CCCc2ccc(F)cc2)S(C)(=O)=O)cc(-c2nnnn2C)c1`, with 21.6 nM.
Compound `CCc1cc(NC(=O)N[C@H](C)[C@@H](O)CN(C)CCCc2ccc(F)cc2)cc(-c2nnnn2C)c1` had a half-maximal inhibitory concentration (IC50) in experiment [1] of 0.3 nM.
Same read-out and setting: then `CN(CCCc1ccc(F)cc1)C[C@@H]1CCCC[C@H]1NC(=O)Nc1cccc(-c2nnnn2C)c1`, with 0.6 nM.
With `CCc1cc(NC(=O)N[C@H](C)[C@@H](O)CN(CC)CCCc2ccc(F)cc2)cc(-c2nnnn2C)c1` (stereo in doubt; 5Et), the IC50 in experiment [1] (cho) was 0.4 nM.
`C[C@@H](NC(=O)Nc1cccc(-c2nnnn2C)c1)[C@@H](O)CN(C)CCCc1ccc(F)cc1` returned a half-inhibitory concentration (IC50) in experiment [1] of 0.4 nM. Besides, in experiment [2], the Activity was found to be 0%.
The compound `CCc1cc(NC(=O)N[C@H](C)[C@@H](O)CN(CCCc2ccc(F)cc2)C(C)=O)cc(-c2nnnn2C)c1` had an IC50 in experiment [1] of 6 nM.
As for `C[C@@H](NC(=O)Nc1cccc(-c2nnnn2C)c1)[C@@H](O)CN1CCC[C@@H](Cc2ccc(F)cc2)C1`, the values for the IC50 in experiment [1] and in experiment [6] were 0.3 nM and 0.4 nM, respectively.
`CCc1cc(NC(=O)N[C@H](C)[C@@H](O)CN(CCCc2ccc(F)cc2)Cc2ccccc2)cc(-c2nnnn2C)c1` gave an IC50 in experiment [1] of 2.5 nM. The values for the Activity in experiment [4] and in experiment [5] were 61% and 9%, respectively.
On to `CCc1cc(NC(=O)N[C@H](C)[C@@H](O)CN(CC)[C@@H](C)[C@@H](O)Cc2ccc(F)cc2)cc(-c2nnnn2C)c1`, for which, in experiment [1], the IC50 is 1.2 nM.

Source of the values: ChEMBL document CHEMBL1140827, “From rigid cyclic templates to conformationally stabilized acyclic scaffolds. Part II: Acyclic replacements for the (3S)-3-benzylpiperidine in a series of potent CCR3 antagonists” (Bioorg Med Chem Lett, 2008).
